Measured values published in patent US7008905B2, “Method of combating undesired plant growth on cereals” (BASF Aktiengesellschaft, priority 2000, dated 2006).

Columns and labels:
Format in all cases: in vivo
[1] = test system: Lamium purpureum; experiment: Post-emergence test, weed control; conditions: 2–4 weeks after treatment, rating 0-100 (100=death), Table 5
Protocol: (§1) These acetone solutions are diluted with water and the resulting formulations applied at dosage levels equivalent of about 0.030 to 0.240 kg per hectare of test compound per pot. After spraying the plants are placed an greenhouse benches and are cared for in the usual manner, commensurate with conventional greenhouse practices. From 2 to 4 weeks after treatment, the seedling plants are examined and rated according to the rating system provided above. A rating 0 indicates growth as untreated control, a rating 100 indicates death.

[2] = test system: Matricaria inodora; experiment: Post-emergence test, weed control; conditions: 2–4 weeks after treatment, rating 0-100 (100=death), Table 5
Protocol: as §1

[3] = test system: Stellaria media; experiment: Post-emergence test, weed control; conditions: 2–4 weeks after treatment, rating 0-100 (100=death), Table 5
Protocol: as §1

[4] = test system: Triticum aestivum variety “Kanzler”; experiment: Post-emergence test, selectivity; conditions: 2–4 weeks after treatment, rating 0-100 (100=death), Table 6
Protocol: as §1

[5] = test system: Triticum aestivum variety “Monopol”; experiment: Post-emergence test, selectivity; conditions: 2–4 weeks after treatment, rating 0-100 (100=death), Table 6
Protocol: as §1

[6] = test system: barley; experiment: Pre-emergence test, tolerance in barley
Protocol: (§2) The pre-emergence tests involve spraying a liquid formulation of the compound onto the soil in which the seeds of the plant species mentioned above has recently been sown.
(§3) The soil used in the tests is a prepared horticultural loam. The formulations used in the tests are prepared from solutions of the test compounds in acetone containing 0.4% by weight of an alkylphenol/ethylene oxide condensate available under the trade mark TRITON X-155.
(§4) These acetone solutions are diluted with water and the resulting formulations applied at dosage levels corresponding to 15 g, 30 g, 60 g, 120 g or 240 g of active material per hectare in a volume equivalent to 900 liters per hectare. In these tests untreated sown soil is used as control. The herbicidal effects of the test compounds are assessed visually three weeks after spraying the soil and are recorded an a 0 to 100 scale. A rating 0 indicates growth as untreated control, a rating 100 indicates death. An increase of 10 unit an the linear scale approximates to a 10% increase in the level of effect. The results of the assessment are set out in Tables 1 to 4.

[7] = test system: wheat; experiment: Post-emergence test, tolerance in wheat
Protocol: as §1

[8] = test system: wheat; experiment: Pre-emergence test, tolerance in wheat
Protocol: as §2, §3, §4

[9] = test system: grasses and broadleaf weeds; experiment: Post-emergence test, overall weed control
Protocol: as §1

Structure (SMILES)	LAMPU weed control rating ([1]; 0.030 kg/ha)	LAMPU weed control rating ([1]; 0.060 kg/ha)	LAMPU weed control rating ([1]; 0.120 kg/ha)	LAMPU weed control rating ([1]; 0.240 kg/ha)	MATIN weed control rating ([2]; 0.030 kg/ha)	MATIN weed control rating ([2]; 0.060 kg/ha)	MATIN weed control rating ([2]; 0.120 kg/ha)	MATIN weed control rating ([2]; 0.240 kg/ha)	STEME weed control rating ([3]; 0.030 kg/ha)	STEME weed control rating ([3]; 0.060 kg/ha)	STEME weed control rating ([3]; 0.120 kg/ha)	STEME weed control rating ([3]; 0.240 kg/ha)	TRZAWK rating (Selectivity) ([4]; 0.03 kg/ha)	TRZAWK rating (Selectivity) ([4]; 0.06 kg/ha)	TRZAWK rating (Selectivity) ([4]; 0.12 kg/ha)	TRZAWK rating (Selectivity) ([4]; 0.24 kg/ha)	TRZAWM rating (Selectivity) ([5]; 0.03 kg/ha)	TRZAWM rating (Selectivity) ([5]; 0.06 kg/ha)	TRZAWM rating (Selectivity) ([5]; 0.12 kg/ha)	TRZAWM rating (Selectivity) ([5]; 0.24 kg/ha)	further results
Cc1cnc(-c2ccc(C(F)(F)F)cc2)nc1Oc1cccc(C(F)(F)F)c1 [REF-1]	93	93	93	93	70	75	75	85	80	90	92	92	18	25	30	40	15	22	30	45	dose at which sufficiently selective in barley [6]: did not exhibit acceptable tolerance in barley at any dose
Cc1nc(-c2ccc(C(F)(F)F)cc2)nc(Oc2cccc(C(F)(F)F)c2)c1C [REF-2]	85	90	92	93	35	45	55	60	45	50	55	80	3	5	8	10	2	5	8	8	maximum tolerated dose in wheat / dose at which sufficiently selective in wheat ([7]; in vivo): similarly selective in wheat
CCc1cc(Oc2cccc(C(F)(F)F)c2)nc(-c2ccc(C(F)(F)F)cc2)n1 [REF-3]	93	93	93	93	65	80	85	85	65	85	85	92	12	15	25	35	10	15	22	30	maximum tolerated dose in wheat / dose at which sufficiently selective in wheat ([8]; in vivo): 60 g/ha; maximum tolerated dose in wheat / dose at which sufficiently selective in wheat ([7]; in vivo): clearly less selective in wheat than TTP; weed control at wheat selective doses [9]: incomplete
FC(F)(F)c1ccc(-c2nccc(Oc3cccc(C(F)(F)F)c3)n2)cc1 [TTP, 4-(3-trifluoromethylphenoxy)-2-(4-trifluoromethyl-phenyl)-pyrimidine]	85	75	92	93	50	90	75	90	50	60	70	90	2	8	8	15	1	8	8	12	maximum tolerated dose in wheat / dose at which sufficiently selective in wheat ([8]; pre-emergence): 240 g/ha; dose at which sufficiently selective in barley [6]: 15 g/ha; maximum tolerated dose in wheat / dose at which sufficiently selective in wheat ([7]; post-emergence): 240 g/ha
